Test results as given in patent publication US4882272A, “High molecular weight kininogen assay” (Temple University - of the Commonwealth System of Higher …, priority 1987, dated 1989).
Peptide text beside a SMILES is read from it.

Biological target: T1, human factor XIa (Homo sapiens, UniProt P03951)
T1 construct: converted to the active enzyme factor XIa by factor XIIa
Test: Hydrolysis of chromogenic substrate S-2366 by factor XIa
Type: biochemical
Experimental: According to one embodiment, a chromogenic substrate for factor XIa is incubated with the assay reaction mixture. The substrate should, under the conditions of the assay, be capable of hydrolysis by factor XIa to yield a hydrolysis product whose appearance may be monitored spectrophotometrically or by a microplate reader. Such substrates include, for example, L-pyroglutamyl-L-prolyl-L-arginine-p-nitroanilide and H-D-leucylthreonyl-arginine-p-nitroanilide, available from KabiVitrum in hydrochloride form as "S-2366" and "S-2511", respectively. The enzymatic activity of factor XIa catalyzes the hydrolysis of the peptide-p-nitroanilide bond, releasing the chromophore p-nitroaniline. The appearance of p-nitroaniline may be measured spectrophotometrically after a fixed hydrolysis time, at 405 nm. The change in absorbance is proportional to the enzyme activity.
S-2366 is the preferred substrate.

T1 sequence (P03951 388-625 limits assumed): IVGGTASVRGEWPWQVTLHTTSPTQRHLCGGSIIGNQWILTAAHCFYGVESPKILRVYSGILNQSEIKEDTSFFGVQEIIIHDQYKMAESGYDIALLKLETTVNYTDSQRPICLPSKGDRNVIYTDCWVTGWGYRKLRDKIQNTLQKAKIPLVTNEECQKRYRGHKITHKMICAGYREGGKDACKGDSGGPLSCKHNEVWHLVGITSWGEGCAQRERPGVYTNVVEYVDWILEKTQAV
T1 sequence (P03951 19-387 partner limits assumed): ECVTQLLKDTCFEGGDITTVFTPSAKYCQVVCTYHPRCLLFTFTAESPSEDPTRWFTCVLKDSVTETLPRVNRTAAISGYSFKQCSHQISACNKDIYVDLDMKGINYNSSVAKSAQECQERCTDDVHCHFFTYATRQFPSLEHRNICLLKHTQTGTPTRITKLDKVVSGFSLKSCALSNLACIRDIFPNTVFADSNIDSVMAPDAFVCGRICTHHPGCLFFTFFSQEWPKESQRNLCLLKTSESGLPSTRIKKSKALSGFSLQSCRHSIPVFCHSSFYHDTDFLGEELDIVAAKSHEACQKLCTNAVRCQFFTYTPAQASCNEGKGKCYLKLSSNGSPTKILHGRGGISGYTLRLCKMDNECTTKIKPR

N=C(N)NCCC[C@H](NC(=O)[C@@H]1CCCN1C(=O)[C@@H]1CCC(=O)N1)C(=O)Nc1ccc([N+](=O)[O-])cc1 [S-2366, L-pyroglutamyl-L-prolyl-L-arginine-p-nitroanilide] (HELM PEPTIDE1{[Glp].P.R.[O=[N+]([O-])c1ccc(N[*:1])cc1]}$$$$V2.0)
Kcat to Km ratio: 5.5e+06 M⁻¹ s⁻¹
